Results as given in paper PMC6193465 (Journal of the American Chemical Society, 2018).
Like-named read-outs stand apart in the source and are kept apart here. Where no end group is shown, it is not given here.

How the values were obtained:
[1] = comparison value for 1; cited from earlier work
[2] = tested on: prokaryotic protein synthesis; test: in vitro transcription-translation assay; assay type: biochemical; conditions: read-out: half-maximum inhibitory concentration, inhibition of prokaryotic protein synthesis
aqueous solubility = assay type: physicochemical
[3] = tested on: indicator bacterial strains; test: antibacterial activity, minimum inhibitory concentrations; assay type: cell-based; conditions: range over the strains tested (Table S5)

| Substance | aqueous solubility [1] | IC50 [2] | aqueous solubility (aqueous solubility) | minimum inhibitory concentrations [3] | minimum inhibitory concentrations ([3]; in molar units) |
| --- | --- | --- | --- | --- | --- |
| IASASCTTCICTCSCSS (also: bicyclic or more (positions not given here)) [compound 1, thiostrepton A, reference compound] | 21.88 ± 0.05 µM | 500 ± 40 nM |  |  |  |
| thiostrepton Aa [compound 7] |  | 260 ± 40 nM | 26.01 ± 0.05 µM | 0.018 to 0.098 µg/mL | 0.010 to 0.058 µM |
